# Values of other authors in patent US7750010B2, “Tricyclic anilide spirohydantion CGRP receptor antagonists” (Merck Sharp & Dohme Corp., priority 2004, dated 2010).
# No end group written: not given here.
# Experiments:
# [1] = test system: facial blood flow; conditions: rat, trigeminal ganglion stimulation
# [2] = test system: middle meningeal artery; conditions: rats, electrical stimulation of the dura mater, prior administration
# [3] = test system: facial blood flow; conditions: marmoset, electrical stimulation of the trigeminal ganglion
Molecule,effect on increased facial blood flow [1],effect on increase in diameter of the middle meningeal artery [2],effect on increase in facial blood flow [3]
"CGRP(8-37): a fragment of CGRP that lacks seven N-terminal amino acid residues; a peptide CGRP antagonist (VTHRLAGLLSRSGGVVKNNFVPTNVGSKAF; ends and bridges not checked; UniProt P06881 90-119, looked up, fragment)",inhibited,blocked,
NCCCC[C@H](NC(=O)[C@@H](Cc1cc(Br)c(O)c(Br)c1)NC(=O)N1CCC(N2Cc3ccccc3NC2=O)CC1)C(=O)N1CCN(c2ccncc2)CC1 [BIBN4096BS],,,could be blocked
